Assays:
[1] = tested on: THP1 macrophages; assay: Gene expression measurement by Gene Chip Microarray in THP1 macrophages; type: cell-based, human; conditions: Gene Chip Microarray analysis, result in words
Description: Cells were incubated at 37° C. and 5.2% CO2. For experimental treatments, cells were seeded at a density of 1×10^6/ml in 6-well plates in medium containing 100 nM phorbol 12-myristate 13-acetate (PMA) for 72 hours to fully differentiate them into adherent macrophages. The medium was then replaced by culture medium containing PMA with vehicle (DMSO) or test compound for 6 or 24 hours prior to harvesting. Total RNA was isolated using the TriZol reagent (Life Technologies) or the RNeasy mini kit (Qiagen) according to the manufacturer's protocols. To remove contaminating DNA, the samples were treated with RNAse free DNAse (GibCo).
Synthesis of first and second strand cDNA were performed using the SuperScript Choice Gene Chip Kit (Life Technologies) and reagents from Gibco. The double stranded cDNA, containing an incorporated T7 RNA polymerase binding site, was purified by extraction with a mix of phenol:chloroform:isoamylalcohol (Life Technologies). The organic and aqueous phases were separated by Phase Lock Gel (Eppendorf) and double-stranded cDNA was recovered by precipitation according to the manufacturer's protocol and then resuspended in water.
The double-stranded cDNA was converted to biotin-labeled cRNA by in vitro transcription (IVT) using a T7 kit (Ambion) and biotin-containing ribonucleotides (Enzo-LOXO GmbH). […]

[2] = tested on: THP1 macrophages; assay: Gene expression measurement by Taqman quantitative RT-PCR in THP1 macrophages; type: cell-based, human; conditions: result in words
Source text: Three oligonucleotides are used: a forward primer, a reverse primer, and a probe. All of them are specific for the target and are able to bind to it. The TaqMan assay uses a probe technology that exploits 5′→3′-nuclease activity of an enzyme, the most commonly used being Taq polymerase. The assay efficiency is largely dependent on this 5′→3′ nuclease activity. In this regard one should be careful in choosing a suitable polymerase. […] The probe is an oligonucleotide with a reporter dye at the 5′ end and a quencher dye at the 3′ end. The fluorescent reporter dye is attached covalently to the 5′ end and can be FAM (6-carboxyfluorescein), TET (tetrachloro-6-carboxyfluorescein), JOE (2,7-dimethoxy-4,5-dichloro-6-carboxyfluorescein), HEX (hexacholoro-6-carboxyfluorescein), or VIC. The reporter is quenched by TAMRA (6-carboxytetramethylrhodamine), bound to the 3′ end by a linker arm. […] An advantage of using DABCYL in the TaqMan probes is its reduced autofluorescence compared with TAMRA When the probe is intact the quencher dye absorbs the fluorescence of the reporter dye due to the proximity between both. […] By the 5′-exonuclease activity of the Taq:polymerase the probe is hydrolyzed and the reporter dye is separated from the quencher, resulting in an increase in fluorescence emission. […]

For `O=S(=O)(c1ccccc1)N(CC(F)(F)F)c1ccc(C(O)(C(F)(F)F)C(F)(F)F)cc1` [T0901317], the “Gene expression changes of the listed marker genes (ABCA1, ABCG1, APOC1, APOE, ASM3A, C3F, CDC42EP4, CXCR4 ... PRKCI)” value [1] was “strong induction” and the “Gene expression changes for ABCA1, ABCG1, APOC1, APOE, ASM3A, CDC42EP4, CXCR4, FASN, LDLR, NR1H3, VLDLR” value [2] was “robust and significant increase in expression”.

Source: US20060281088A1, “Markers for lxr activation” (priority 2003, published 2006)
